Experimental findings from patent US20200108008A1, “OLAPARIB ORAL SUSTAINED AND CONTROLLED RELEASE PHARMACEUTICAL COMPOSITION AND USES THEREOF” (SHANGHAI INSTITUTE OF MATERIA MEDICA, CHINESE ACADEMY OF …, priority 2016, published 2020) are described below.

Each structure is given as a SMILES string.

A short description of the series: Dissolution of olaparib solid dispersion versus olaparib compound powder in water under sink conditions. It is filed as physicochemical. Particulars: 37° C., 100 rpm. The method, then: A solid dispersion was prepared from Olaparib and copolyvidone VA64 by solvent evaporation. That is, olaparib and copolyvidone VA64 were simultaneously dissolved in ethanol/acetone (25/75, v/v), evaporated off the organic solvent under reduced pressure, dried in a vacuum drying oven, and ground and pulverized through a 60 mesh screen to be ready for tableting. For the obtained solid dispersion, in water under sink conditions at 37° C. and 100 rpm, the pharmaceutically active ingredient was dissolved out 90% or more in 30 min. However, under the same conditions, the olaparib compound powder was dissolved out less than 60% in 2h.

As to `O=C(c1cc(Cc2n[nH]c(=O)c3ccccc23)ccc1F)N1CCN(C(=O)C2CC2)CC1` [olaparib compound powder, 1-(cyclopropylcarboxyl)-4-[5-[(3,4-dihydro-4-oxo-1-phthalazinyl)methyl]-2-fluorobenzoyl]piperazine], the “dissolved out in 2h” value is “less than 60%”.
